“And” between values parts separate entries of the source, which are not always exact repeats. Identical values can stand only once. “Also recorded” adds a separate entry of the source. Blank lines part the entries; values can stand above or below the compound they belong to.
Key:
nSMase = target: nSMase; set-up: method as in PMID 21615386, PMID 17049336; conditions: cited from earlier work; for IC50: Enzyme source: Rat brain
human nSMase2 [1] = target: T1, human nSMase2 (Homo sapiens, UniProt Q9NY59); assay: 14C-SM confirmatory direct activity assay; assay type: biochemical; set-up: Full length human nSMase2 cDNA with a C-terminal Flag tag; host or cells: HEK293, stably transfected; crude cell lysate used as enzyme; conditions: [14C]-SM direct activity assay, human recombinant enzyme
T1 sequence (Q9NY59 1-655): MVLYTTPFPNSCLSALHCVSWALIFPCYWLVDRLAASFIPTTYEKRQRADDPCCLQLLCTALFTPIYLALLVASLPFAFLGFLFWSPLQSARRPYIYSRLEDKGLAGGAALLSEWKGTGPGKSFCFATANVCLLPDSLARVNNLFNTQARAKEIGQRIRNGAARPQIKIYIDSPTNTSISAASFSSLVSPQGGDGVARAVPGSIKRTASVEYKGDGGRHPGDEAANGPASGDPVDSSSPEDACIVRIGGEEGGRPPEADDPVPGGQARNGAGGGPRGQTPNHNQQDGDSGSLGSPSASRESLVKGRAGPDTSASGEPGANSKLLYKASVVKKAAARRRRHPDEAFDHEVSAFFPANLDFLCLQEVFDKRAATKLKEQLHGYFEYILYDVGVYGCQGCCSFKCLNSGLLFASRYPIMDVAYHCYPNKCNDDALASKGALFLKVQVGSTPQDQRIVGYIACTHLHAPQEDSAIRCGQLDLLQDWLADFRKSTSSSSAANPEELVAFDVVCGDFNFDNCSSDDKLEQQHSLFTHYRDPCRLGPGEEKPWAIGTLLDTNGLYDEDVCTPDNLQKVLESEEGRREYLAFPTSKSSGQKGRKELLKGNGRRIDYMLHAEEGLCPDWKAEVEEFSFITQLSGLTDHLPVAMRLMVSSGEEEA
Method: This assay was dependent on the direct hydrolysis of ^14C-labeled SM (^14C N-methyl groups in the phosphorylcholine) by human nSMase2. Optimization of assay conditions was accomplished according to the methods of Barbone et al.. Briefly, bovine [N-methyl-^14C]-sphingomyelin (specific activity […], Perkin Elmer) and phosphatidylinositol (Avanti Polar Lipids) were evaporated to dryness under a stream of nitrogen and resuspended at an equimolar concentration of 0.1 mM in water with 0.5% Triton X-100 (Sigma). The solution was vortexed for 30 min and then sonicated for 30 min. Assay conditions were as follows: 50 μl total volume per reaction, consisting of 20 μM SM, reaction buffer (100 mM Tris-HCl pH 7.5, 80 mM MgCl2, 0.1% Triton X-100); 10 μl cell lysate containing recombinant human nSMase2 (0.5–1 μg protein/assay) and 5 μl of compound in reaction buffer containing 10% DMSO. After 1 h incubation at 37°C the reaction was terminated by the addition of 30 μl of water and 175 μl of chloroform/methanol (2:1, v:v), followed by vigorous vortexing. Tubes were centrifuged for 5 min at 10,000 xg at room temperature to separate the organic bottom phase containing labeled SM and the aqueous upper phase containing ^14C-labeled-phosphorylcholine. An aliquot (50 μl) of the upper phase was transferred to a vial with 10 ml of scintillant and counted for 2 min on a Beckman LS-6000IC scintillation counter. Enzyme activity was directly proportional to the disintegrations per min (dpm) resulting from the generation of ^14C-phosphorylcholine.

human nSMase2 [2] = target: T1, human nSMase2; assay: Fluorescence (Amplex red coupled) nSMase2 activity assay; assay type: biochemical; set-up: Full length human nSMase2 cDNA with a C-terminal Flag tag; crude cell lysate used as enzyme
Method: The production of the latter was coupled to a dephosphorylation reaction catalyzed by alkaline phosphatase (4 U/ml) to produce choline, followed by oxidation of choline by choline oxidase (0.1 U/ml) to produce betaine and H2O2, which in the presence of horseradish peroxidase (HRP, 1U/ml) and 50 μM Amplex red, generates the fluorescent molecule resorufin (Life Technologies). Substrate stock solution was prepared in 2% Triton X-100, vortexed and sonicated for 30 min. Reactions were carried out for 1 h at 37°C in 100 mM Tris-HCl pH 7.4, 10 mM MgCl2, 0.2% Triton X-100 and the generation of the fluorescent product was monitored by measuring relative florescence units (RFU) with excitation at 530 nm and emission at 590 nm (Fig 1). This assay was optimized for 384-well format (50 μl total volume per well) based on linearity of the enzymatic activity with respect to time, as well as substrate and enzyme concentrations. […] This fluorescence assay was used for compound screening and IC50 value determinations, based on duplicate eight-point dose response curves.

[3] = test system: rat primary hippocampal neurons; assay: Hippocampal neuronal survival (Hoechst 33342); assay type: cell-based
Method: All animal procedures were approved by the Johns Hopkins University Animal Care and Use Committee. Primary hippocampal neurons were prepared from day 18 decapitated embryos of Sprague-Dawley rats following previously described methods. Cells were seeded on polyethyleneimine (PEI)-coated slides in 12-well plates and cultured between 14–21 days. […] After 18 h, cells were stained with 50 μg/ml Hoeschst 33342 for 20 min and then fixed with 4% paraformaldehyde for 30 min. The number of living and apoptotic cells was determined by fluorescence microscopy. A minimum of 500 cells were counted per treatment condition. Results were normalized to control untreated cells and were representative of at least two independent experiments conducted in triplicate. Statistical evaluation of the data was done by Student’s t-test.

Compound: CC1CC2C(C=CC3CC(O)CC4CC(=O)C(=CC32)C(=O)O4)C1=O (stereo not drawn) [Macquarimicin A]
- IC50 (nSMase): 145 µM
- MOI (nSMase): Non- competitive

- IC50 (human nSMase2 [1]): 7 ± 1 µM
Compound: O=c1[nH]c(=S)[nH]c(-c2cccc(Cl)c2)c1Cc1c(O)ccc2ccccc12 [compound 8]

- effect on human nSMase2 activity (human nSMase2 [2]; 20 μM SM/PS at equimolar concentration (S5 Fig)): did not significantly affect
Compound: phosphatidylserine

- IC50 (human nSMase2 [1]): 6 ± 3 µM
Compound: O=c1[nH]c(=S)[nH]c(-c2ccccc2F)c1Cc1c(O)ccc2ccccc12 [compound 9]

Compound: COc1cc(O)c(C(=O)O)c(-c2cc(O)c(O)cc2C)c1 [Altenusin, reference compound]
- IC50 (nSMase): 28 µM
- MOI (nSMase): Non- competitive
- modulation of enzymatic activity (Fig 3C raw data) (human nSMase2 [2]; 100 µM): 75.4 RFU and 73.8 RFU and 72.1 RFU and 74.7 RFU
- inhibition of human nSMase2 activity (human nSMase2 [2]; 150 μM GW4869, 100 μM manumycin A, altenusin, zoledronic acid): possible to inhibit enzyme activity; also recorded: inhibition

Compound: O=P(O)(O)C(O)(Cn1ccnc1)P(=O)(O)O [zoledronic acid, reference compound]
- neuron survival, Mean (normalized to control untreated cells) ([3]; 100 ng/ml IL1β 18 h, 10 µM compound): 84.88
- neuron survival, Mean (normalized to control untreated cells) ([3]; 100 ng/ml IL1β 18 h, 25 µM compound): 85.75
- neuron survival, Mean (normalized to control untreated cells) ([3]; 100 ng/ml TNFα 18 h, 10 µM compound): 80.07
- neuron survival, Mean (normalized to control untreated cells) ([3]; 100 ng/ml TNFα 18 h, 25 µM compound): 81.28

- enzymatic activity (human nSMase2 [2]; [SM] 3.91 µM): 212.26 RFU
- enzymatic activity (human nSMase2 [2]; [SM] 7.81 µM): 311.45 RFU
- enzymatic activity (human nSMase2 [2]; [SM] 15.63 µM): 459.12 RFU
- enzymatic activity (human nSMase2 [2]; [SM] 31.25 µM): 722.04 RFU
- enzymatic activity (human nSMase2 [2]; [SM] 62.50 µM): 1075.56 RFU
- enzymatic activity (human nSMase2 [2]; [SM] 125.00 µM): 1331.12 RFU
- enzymatic activity (human nSMase2 [2]; [SM] 250.00 µM): 1431.87 RFU
- enzymatic activity (human nSMase2 [2]; [SM] 500.00 µM): 1408.02 RFU
Compound: sphingomyelin [SM]
